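Values below derive from 48-hour exposures of cells grown in 96-well plates, with endpoints linearly interpolated between the two concentrations bracketing the appropriate inhibition level. TGI marks complete inhibition of growth.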
What was measured:
Assay in all cases: NCI tumour cell line growth inhibition, 48 h
HOP-62 NSCLC = system: HOP-62 NSCLC
MDA-N = system: MDA-N
MOLT-4 leukemia = system: MOLT-4 leukemia
OVCAR-3 ovarian = system: OVCAR-3 ovarian
RPMI-8226 leukemia = system: RPMI-8226 leukemia
RXF 393 renal = system: RXF 393 renal
SK-MEL-2 melanoma = system: SK-MEL-2 melanoma
DLD-1 colon = system: DLD-1 colon
KM20L2 colon = system: KM20L2 colon
LXFL 529 NSCLC = system: LXFL 529 NSCLC
M19-MEL melanoma = system: M19-MEL melanoma
SNB-78 CNS = system: SNB-78 CNS
DMS 114 small cell lung = system: DMS 114 small cell lung

SMILES | TGI (HOP-62 NSCLC) [µM] | TGI (MDA-N) [µM] | TGI (MOLT-4 leukemia) [µM] | TGI (OVCAR-3 ovarian) [µM] | TGI (RPMI-8226 leukemia) [µM] | TGI (RXF 393 renal) [µM] | TGI (SK-MEL-2 melanoma) [µM] | TGI (DLD-1 colon) [µM] | TGI (KM20L2 colon) [µM] | TGI (LXFL 529 NSCLC) [µM] | TGI (M19-MEL melanoma) [µM] | TGI (SNB-78 CNS) [µM] | TGI (DMS 114 small cell lung) [µM]
O=[N+]([O-])c1ccc2nc(/C=C(\O)c3ccc(F)cc3)c(/C=C(\O)c3ccc(F)cc3)nc2c1 | 31.7 | > 100 | 43.5 | > 100 | > 100 | 40.7 | 45.2 | – | – | – | – | – | –
O=S1C2=C(Cc3ccccc3)C(Cc3ccccc3)=C1CCc1cccc(c1)CC2 | – | 30.6 | 63.7 | 23.5 | – | 19.7 | 31.1 | – | – | – | – | – | –
COCCOCCOC1=C(Cl)C(=O)c2c(O)ccc(O)c2C1=O | 7.3 | 9.63 | 2.37 | 3.19 | 3.07 | 2.99 | 4.86 | – | – | – | – | – | –
COC(=O)C1C2C=CC(C2)N1[C@@H](C)c1ccccc1 (stereo not given in full) | > 100 | – | – | > 100 | > 100 | – | > 100 | > 100 | > 100 | > 100 | > 100 | > 100 | –
CN(CCc1ccc(N)cc1)[C@H]1CCCC[C@H]1N1CCCC1 | > 100 | > 100 | > 100 | > 100 | > 100 | > 100 | > 100 | – | – | – | – | – | –
CCC(=O)O[C@H]1CC[C@H]2[C@@H]3CCC4=C/C(=N/NC(=O)c5cccc6c(=O)c7ccccc7[nH]c56)CC[C@]4(C)[C@H]3CC[C@]12C | > 25 | > 25 | > 25 | > 25 | > 25 | > 25 | > 25 | – | – | – | – | – | –
CC(=O)OC1c2ccccc2CCCCCCC12OCCO2 (stereo not given) | > 100 | – | > 100 | > 100 | > 100 | > 100 | > 100 | > 100 | > 100 | – | – | > 100 | > 100
Cc1ccc2c(n1)C(=O)c1ccccc1C2=O | > 85.4 | > 59.9 | > 88.7 | 16.5 | > 95.8 | 87.2 | > 89 | – | – | – | – | – | –
COc1cccc(NC(=O)CC(=O)N2N=C(C)C(N=Nc3ccc(S(=O)(=O)c4ccc(N=NC5C(=O)N(C(=O)CC(=O)Nc6cccc(OC)c6)N=C5C)cc4)cc3)C2=O)c1 (stereo not given) | > 100 | > 100 | > 100 | > 100 | > 100 | > 100 | > 100 | – | – | – | – | – | –
CC[C@@H](/C=C\CCC1(C[C@H](O)CCC=C(C)C)OCCO1)O[Si](C(C)C)(C(C)C)C(C)C | > 100 | > 100 | 45.4 | 37.1 | 42.7 | 33.8 | 30.7 | – | – | – | – | – | –
CSC1=C(c2ccc(Cl)cc2)SC(N2CCCCC2)N1c1ccc([N+](=O)[O-])cc1 (stereo not given) | 41.8 | > 100 | 75.9 | 58.1 | 45.2 | > 100 | 54.3 | – | – | – | – | – | –
CSc1ccc(/C=C2\N=C(c3ccccc3)N(c3nc4ccc(Sc5ccccc5)cc4[nH]3)C2=O)cc1 | 65.9 | 18 | 80.9 | 35.9 | 57.2 | 56.9 | 37 | – | – | – | – | – | –
O=C(CC(C(=O)c1ccoc1)c1ccco1)c1ccco1 (stereo not given) | > 100 | > 100 | > 100 | > 100 | > 100 | > 100 | – | – | – | – | – | – | –
CC1(C)CC(=O)c2c(nc3ccc4ccccc4c3c2-c2ccc(NC(=O)CCC(=O)Nc3ccc(-c4c5c(nc6ccc7ccccc7c46)CC(C)(C)CC5=O)cc3)cc2)C1 | > 100 | > 100 | > 100 | > 100 | > 100 | > 100 | > 100 | – | – | – | – | – | –
COc1cc2c(c(OC)c1OC)-c1ccc(SC)cc1[C@H](OC(=O)c1ccccc1)CC2 | > 100 | 0.0222 | > 100 | > 100 | – | 0.452 | > 100 | – | – | – | – | – | –
COc1ccc(CCNC(=O)Cc2cc(OC)c(OC)cc2CO)cc1OC | > 100 | > 100 | > 100 | > 100 | > 100 | > 100 | > 100 | – | – | – | – | – | –
COc1ccc(N=C(Nc2ccc(OC)cc2)C(=Nc2ccc(OC)cc2)Nc2ccc(OC)cc2)cc1 | > 100 | > 100 | > 100 | > 100 | > 100 | > 100 | > 100 | – | – | – | – | – | –
C#C[C@]1(O)CC[C@H]2[C@@H]3CCc4cc(OC(=O)c5cccc6cc7ccccc7nc56)ccc4[C@H]3CC[C@@]21C | > 100 | 89.3 | > 100 | 63 | > 100 | > 100 | > 100 | – | – | – | – | – | –
COc1ccccc1N1CCN(Cn2c(=O)oc3cccnc32)CC1 | > 100 | > 100 | > 100 | > 100 | > 100 | > 100 | > 100 | – | – | – | – | – | –
CNC(=O)c1[nH]cnc1/N=N/N(C)N | > 100 | > 100 | > 100 | > 100 | > 100 | > 100 | > 100 | – | – | – | – | – | –
CNC1=CC(=O)C2=C(C1=O)[C@H]1CC[C@]3(C)C(=O)CC[C@H]3[C@@H]1CC2 | 29.8 | 25 | > 49.1 | 9.3 | 48.5 | 41.1 | 17.1 | – | – | – | – | – | –
O=C(N/N=C\c1ccc2ccccc2c1)Nc1ccc([N+](=O)[O-])cc1 | 68.1 | > 70.6 | 97.7 | 55.4 | > 100 | > 79.2 | > 73.5 | – | – | – | – | – | –
Clc1ccc(C2NN=C3c4ccccc4OCC32)cc1 (stereo not given) | > 93.5 | 2.56 | 26.9 | 29.6 | 6.93 | 41.3 | 15.5 | – | – | – | – | – | –
COc1cc(COC(=O)N2CCC2C(=O)O)c([N+](=O)[O-])cc1OC (stereo not given) | > 100 | > 100 | > 100 | > 100 | > 100 | > 100 | – | – | – | – | – | – | –
Cc1cccc(NC(=S)N=Nc2c(O)[nH]c3ccccc23)c1 | > 100 | > 100 | > 100 | > 100 | > 100 | > 100 | > 100 | – | – | – | – | – | –
